Patent US20240279237A1, “FUSED BICYCLIC HETEROARYL COMPOUNDS USEFUL AS NLRP3 INHIBITORS” (Hoffmann-La Roche Inc., priority 2021, published 2024)

Target: T1, NLRP3 (Homo sapiens, UniProt Q96P20)
T1 construct: Seed THP-1 cells (25,000 cells/well) containing 1.0 μg/ml LPS in 40 μl of RPMI medium; host or cells: THP-1 cells
Experiment: THP-1 Cells Pyroptosis Assay
Assay type: cell-based
Settings: THP-1 cells with 1.0 μg/ml LPS; compound 3 hours; nigericin 5 μM 1 hr; resazurin readout
Summary of the method: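 THP-1 cells in serum-free RPMI primed with LPS (1 μg/ml FAC), incubated with compound 3 h at 37 °C, then nigericin (5 μM FAC) for 1 h. Supernatant removed after spin; viability read by resazurin (100 μM FAC) reduction after a further 1-2 h at 37 °C.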

T1 sequence (Q96P20 whole entry): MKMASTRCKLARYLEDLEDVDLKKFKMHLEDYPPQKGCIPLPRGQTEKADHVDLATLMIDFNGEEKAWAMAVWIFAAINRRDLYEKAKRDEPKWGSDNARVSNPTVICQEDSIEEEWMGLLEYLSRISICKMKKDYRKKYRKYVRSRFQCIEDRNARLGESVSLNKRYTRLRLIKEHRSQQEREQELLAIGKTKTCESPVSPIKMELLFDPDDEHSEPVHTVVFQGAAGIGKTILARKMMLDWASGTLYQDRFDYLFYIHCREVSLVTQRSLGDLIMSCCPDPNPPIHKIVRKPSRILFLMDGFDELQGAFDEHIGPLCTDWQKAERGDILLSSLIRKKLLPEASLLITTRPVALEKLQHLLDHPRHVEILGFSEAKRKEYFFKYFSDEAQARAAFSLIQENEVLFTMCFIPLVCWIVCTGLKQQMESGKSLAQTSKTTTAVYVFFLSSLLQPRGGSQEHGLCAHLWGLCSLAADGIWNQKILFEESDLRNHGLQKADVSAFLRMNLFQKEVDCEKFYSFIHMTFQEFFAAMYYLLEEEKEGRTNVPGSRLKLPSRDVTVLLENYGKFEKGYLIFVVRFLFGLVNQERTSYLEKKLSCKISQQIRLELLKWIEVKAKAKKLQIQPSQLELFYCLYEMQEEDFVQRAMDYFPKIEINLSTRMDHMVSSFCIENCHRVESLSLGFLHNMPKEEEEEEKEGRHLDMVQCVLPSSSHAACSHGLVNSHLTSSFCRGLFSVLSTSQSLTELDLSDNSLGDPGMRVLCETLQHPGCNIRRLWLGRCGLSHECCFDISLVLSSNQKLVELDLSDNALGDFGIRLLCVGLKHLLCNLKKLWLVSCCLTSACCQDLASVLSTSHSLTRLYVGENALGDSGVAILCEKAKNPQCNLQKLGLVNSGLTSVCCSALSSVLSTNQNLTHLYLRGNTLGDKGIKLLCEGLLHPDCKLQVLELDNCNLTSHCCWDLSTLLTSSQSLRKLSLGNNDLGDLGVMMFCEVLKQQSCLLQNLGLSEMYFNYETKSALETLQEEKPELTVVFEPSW

Structure (SMILES)	IC50 [nM]
Cc1cc(Cl)cc(O)c1-c1ccc2oc(NC3CCC4CCCN4C3)nc2n1 (centres unmarked) [Example 65, 2-[2-(1,2,3,5,6,7,8,8a-Octahydroindolizin-6-ylamino)oxazolo[4,5-b]pyridin-5-yl]-5-chloro-3-methyl-phenol]	20.3
Cc1cc(C(F)(F)F)cc(O)c1-c1ccc2oc(NCC3CCN3C)nc2n1 (centres unmarked) [Example 66, 3-Methyl-2-[2-[(1-methylazetidin-2-yl)methylamino]oxazolo[4,5-b]pyridin-5-yl]-5-(trifluoromethyl)phenol]	149
Cc1cc(Cl)cc(O)c1-c1ccc2oc(NCc3c[nH]cn3)nc2n1 [Example 67, 5-Chloro-2-[2-(1H-imidazol-5-ylmethylamino)oxazolo[4,5-b]pyridin-5-yl]-3-methyl-phenol; formic acid]	290
CCN1C[C@H](O)C[C@@H](Nc2nc3nc(-c4c(C)cc(Cl)cc4O)ccc3o2)C1 [Example 68, (3R,5R)-5-[[5-(4-Chloro-2-hydroxy-6-methyl-phenyl)oxazolo[4,5-b]pyridin-2-yl]amino]-1-ethyl-piperidin-3-ol;formic acid]	62.4
Cc1ccc(C)c(-c2ccc3oc(N[C@@H]4CCCN(C)C4)nc3n2)c1O [Example 69, 3,6-Dimethyl-2-[2-[[(3R)-1-methyl-3-piperidyl]amino]oxazolo[4,5-b]pyridin-5-yl]phenol]	2.7
CCN1C[C@@H](O)C[C@@H](Nc2nc3nc(-c4c(C)cc(C)cc4O)ccc3o2)C1 [Example 70]	3.8
CCN1C[C@H](O)C[C@@H](Nc2nc3nc(-c4c(C)cc(C#N)cc4O)ccc3o2)C1 [Example 71, 4-[2-[[(3R,5R)-1-Ethyl-5-hydroxy-3-piperidyl]amino]oxazolo[4,5-b]pyridin-5-yl]-3-hydroxy-5-methyl-benzonitrile]	1.1
Cc1cc(Cl)cc(O)c1-c1ccc2oc(C3CCC(=O)NC3)nc2n1 (centres unmarked) [Example 73, 5-[5-(4-Chloro-2-hydroxy-6-methyl-phenyl)oxazolo[4,5-b]pyridin-2-yl]piperidin-2-one]	30
Cc1cc(Cl)cc(O)c1-c1ccc2oc(N[C@@H]3CCCN(CCC(F)F)C3)nc2n1 [Example 74, 5-Chloro-2-[2-[[(3R)-1-(3,3-difluoropropyl)-3-piperidyl]amino]oxazolo[4,5-b]pyridin-5-yl]-3-methyl-phenol]	9.2
Cc1cc(Cl)cc(O)c1-c1ccc2oc(N[C@@H]3CCCN(CC4CC(O)C4)C3)nc2n1 (stereo partly drawn) [Example 75, 5-Chloro-3-methyl-2-[2-[[(3R)-1-[(3-hydroxycyclobutyl)methyl]-3-piperidyl]amino]oxazolo-[4,5-b]pyridin-5-yl]phenol]	20.8
Cc1cc(Cl)cc(O)c1-c1ccc2oc(NCc3ncc[nH]3)nc2n1 [Example 76, 5-Chloro-2-[2-(1H-imidazol-2-ylmethylamino)oxazolo[4,5-b]pyridin-5-yl]-3-methyl-phenol]	143
Cc1cc(C(F)(F)F)cc(O)c1-c1ccc2oc(N3CCCC(CO)C3)nc2n1 (centres unmarked) [Example 77, 2-[2-[3-(Hydroxymethyl)-1-piperidyl]oxazolo[4,5-b]pyridin-5-yl]-3-methyl-5-(trifluoromethyl)phenol]	135
Cc1cc(C(F)(F)F)cc(O)c1-c1ccc2oc(N3CCC(CO)CC3)nc2n1 [Example 78, 2-[2-[4-(Hydroxymethyl)-1-piperidyl]oxazolo[4,5-b]pyridin-5-yl]-3-methyl-5-(trifluoromethyl)phenol]	58.3
CCN1CCC12CCN(c1nc3nc(-c4c(C)cc(C(F)(F)F)cc4O)ccc3o1)CC2 [Example 79, 2-[2-(1-Ethyl-1,7-diazaspiro[3.5]nonan-7-yl)oxazolo[4,5-b]pyridin-5-yl]-3-methyl-5-(trifluoromethyl)phenol]	94.9
CCN1CC2OCCN(c3nc4nc(-c5c(C)cc(C#N)cc5O)ccc4o3)C2C1 [Example 80, 3-Hydroxy-5-methyl-4-[2-[rel-(4aS,7aR)-6-ethyl-2,3,4a,5,7,7a-hexahydropyrrolo[3,4-b][1,4]oxazin-4-yl]oxazolo[4,5-b]pyridin-5-yl]benzonitrile]	110
Cc1cc(C#N)cc(O)c1-c1ccc2oc(N3CCCC4CCN(C)CC43)nc2n1 (centres unmarked) [Example 81, 3-Hydroxy-5-methyl-4-[2-(7-methyl-2,3,4,4a,5,6,8,8a-octahydro-1,7-naphthyridin-1-yl)oxazolo[4,5-b]pyridin-5-yl]benzonitrile]	72.3
Cc1ccc(C#N)c(O)c1-c1ccc2oc(N[C@@H]3CCCN(C)C3)nc2n1 [Example 82, 2-Hydroxy-4-methyl-3-[2-[[(3R)-1-methyl-3-piperidyl]amino]oxazolo[4,5-b]pyridin-5-yl]benzonitrile;2,2,2-trifluoroacetic acid]	128
Cc1cc(Cl)cc(O)c1-c1ccc2oc(CC3CCCN(C)C3)nc2n1 (centres unmarked) [Example 83, 5-Chloro-3-methyl-2-[2-[(1-methyl-3-piperidyl)methyl]oxazolo[4,5-b]pyridin-5-yl]phenol]	5.1
COC(=O)CCCN1CCC[C@@H](Nc2nc3nc(-c4c(C)cc(Cl)cc4O)ccc3o2)C1 [Example 84, Methyl 4-[(3R)-3-[[5-(4-chloro-2-hydroxy-6-methyl-phenyl)oxazolo[4,5-b]pyridin-2-yl]amino]-1-piperidyl]butanoate]	0.8
Cc1cc(C#N)cc(O)c1-c1ccc2oc(N[C@@H]3CCCN(CCO)C3)nc2n1 [Example 85, 3-Hydroxy-4-[2-[[(3R)-1-(2-hydroxyethyl)-3-piperidyl]amino]oxazolo[4,5-b]pyridin-5-yl]-5-methyl-benzonitrile]	15.4
Cc1cc(Cl)cc(O)c1-c1ccc2oc(NC3CCC(CO)N(C)C3)nc2n1 (centres unmarked) [Example 87, 5-Chloro-2-[2-[[6-(hydroxymethyl)-1-methyl-3-piperidyl]amino]oxazolo[4,5-b]pyridin-5-yl]-3-methyl-phenol;2,2,2-trifluoroacetic acid]	75.6
Cc1cc(Cl)cc(O)c1-c1ccc2oc(CC3CN(C(C)C)CCO3)nc2n1 (centres unmarked) [Example 88, 5-Chloro-2-[2-[(4-isopropylmorpholin-2-yl)methyl]oxazolo[4,5-b]pyridin-5-yl]-3-methyl-phenol;formic acid]	6
Cc1cc(S(C)(=O)=O)cc(O)c1-c1ccc2oc(N[C@@H]3CCCN(C)C3)nc2n1 [Example 89, 3-Methyl-2-[2-[[(3R)-1-methyl-3-piperidyl]amino]oxazolo[4,5-b]pyridin-5-yl]-5-methylsulfonyl-phenol;2,2,2-trifluoroacetic acid]	536
COCCN(c1nc2nc(-c3c(C)cc(Cl)cc3O)ccc2o1)[C@@H]1CCCN(C)C1 [Example 90, 5-Chloro-2-[2-[2-methoxyethyl-[(3R)-1-methyl-3-piperidyl]amino]oxazolo[4,5-b]pyridin-5-yl]-3-methyl-phenol;formic acid]	22.6
CCN1CCCC[C@@H](Nc2nc3nc(-c4c(C)cc(C(F)(F)F)cc4O)ccc3o2)C1 [Example 91, 2-[2-[[(3R)-1-Ethylazepan-3-yl]amino]oxazolo[4,5-b]pyridin-5-yl]-3-methyl-5-(trifluoromethyl)phenol]	4.9
Cc1cc(Cl)cc(O)c1-c1ccc2oc(NCC3CC(O)C3)nc2n1 (centres unmarked) [Example 92, 5-Chloro-2-[2-[(3-hydroxycyclobutyl)methylamino]oxazolo[4,5-b]pyridin-5-yl]-3-methyl-phenol]	26.9
